One experiment deals with KRas(G12V) (Homo sapiens (Human), UniProt P01116, G12V). Briefly: KRas(G12V) GDP HTRF (BODIPY-GDP exchange TR-FRET). It is filed as biochemical. A general note: TR-FRET usually uses a lanthanide donor and a delayed reading to cut background.
In a further experiment the test system is PC-9 cells. Briefly: PC9 proliferation assay. It is filed as cell-based, human. The conditions noted are these: Homo sapiens, PC-9, PC9; read-out: PC9 Prolif IC50 (G12V).
The next experiment concerns the target KRas (Homo sapiens (Human), UniProt P01116). Put plainly: KRas GDP HTRF (BODIPY-GDP exchange TR-FRET). It is filed as biochemical. The method, boiled down: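 Inhibition of SOS1-mediated exchange of BODIPY-GDP on KRAS G12D, started with 3 nM recombinant human SOS1 and 300 nM BODIPY-GDP and read after 60 min. TR-FRET excitation 337 nm, ratio 520/490 nm ×10,000. IC50 from 4-parameter Hill fit of normalized data.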

Another experiment relates to SW480 cells. Put plainly: SW480 proliferation assay. Type of experiment: cell-based. As to conditions: Homo sapiens, SW480, SW480; read-out: SW480 Prolif IC50 (G12V).

KRas, sequence (P01116-2 other isoform, or with tags, fused parts or gaps): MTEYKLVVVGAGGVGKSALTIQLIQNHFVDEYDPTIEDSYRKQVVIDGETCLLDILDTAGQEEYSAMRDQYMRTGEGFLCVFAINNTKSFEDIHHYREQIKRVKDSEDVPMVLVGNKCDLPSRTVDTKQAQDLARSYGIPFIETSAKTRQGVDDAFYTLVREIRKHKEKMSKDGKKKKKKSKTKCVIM
KRas(G12V), sequence (P01116-2 other isoform, or with tags, fused parts or gaps G12V): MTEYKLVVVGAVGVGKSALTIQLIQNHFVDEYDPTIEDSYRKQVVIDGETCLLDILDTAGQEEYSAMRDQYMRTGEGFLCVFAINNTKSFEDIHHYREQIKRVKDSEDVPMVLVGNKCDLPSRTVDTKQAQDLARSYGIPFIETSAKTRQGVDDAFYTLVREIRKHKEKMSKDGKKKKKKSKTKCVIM

Take `Cc1cc(N)nc(-c2cc3nc(OC[C@@]45CCCN4C[C@H](F)C5)nc4c3c(c2Cl)OCCN4Cc2cccnc2N)c1C(F)(F)F` [Example 60, 6-(4-((2-aminopyridin-3-yl)methyl)-8-chloro-2-(((2R,7aS)-2-fluorotetrahydro-1H-pyrrolizin-7a(5H)-yl)methoxy)-5,6-dihydro-4H-[1,4]oxazepino[5,6,7-de]quinazolin-9-yl)-4-methyl-5-(trifluoromethyl)pyridin-2-amine]: the IC50 at KRas(G12V) was 0.42 nM; in the experiment on PC-9 cells, 2700 nM; against KRas, 0.48 nM; in the experiment with SW480 cells, 230 nM.
For the molecule `Cc1cc(N)nc(-c2c(Cl)c3c4c(nc(OCCC5CCCN5C)nc4c2F)N([C@H](C)c2cccnc2N)CCO3)c1C(F)(F)F` (stereo partly drawn) [Example 139, 6-((9R)-4-((R)-1-(2-aminopyridin-3-yl)ethyl)-8-chloro-10-fluoro-2-(2-(1-methylpyrrolidin-2-yl)ethoxy)-5,6-dihydro-4H-[1,4]oxazepino[5,6,7-de]quinazolin-9-yl)-4-methyl-5-(trifluoromethyl)pyridin-2-amine], the IC50 is 0.08 nM against KRas(G12V), 830 nM in the experiment on PC-9 cells, 0.205 nM at KRas and 240 nM in the experiment on SW480 cells.
As for `Cc1cc(N)nc(-c2cc3ncnc4c3c(c2Cl)OCCN4C(c2cccnc2N)C(F)(F)F)c1C(F)(F)F` (centres unmarked) [Example 20, 6-(4-(1-(2-aminopyridin-3-yl)-2,2,2-trifluoroethyl)-8-chloro-5,6-dihydro-4H-[1,4]oxazepino[5,6,7-de]quinazolin-9-yl)-4-methyl-5-(trifluoromethyl)pyridin-2-amine], the IC50 was determined as 69 nM on KRas(G12V), 8700 nM in the experiment with PC-9 cells, 510 nM on KRas and 7300 nM in the experiment with SW480 cells.
With `Cc1cc(N)nc(-c2c(Cl)c3c4c(nc(OCC5CCOCC5)nc4c2F)N([C@H](C)c2cccnc2N)CCO3)c1C(F)(F)F` (atropisomer, axis not shown) [Example 152, 6-((R)-4-((R)-1-(2-aminopyridin-3-yl)ethyl)-8-chloro-10-fluoro-2-((tetrahydro-2H-pyran-4-yl)methoxy)-5,6-dihydro-4H-[1,4]oxazepino[5,6,7-de]quinazolin-9-yl)-4-methyl-5-(trifluoromethyl)pyridin-2-amine], the IC50 came to 0.75 nM against KRas(G12V), 5600 nM with PC-9 cells, 2.3 nM at KRas and 180 nM in the experiment on SW480 cells.
For the molecule `Cc1cc(N)nc(-c2c(Cl)c3c4c(nc(OCC5CCN(C)C5)nc4c2F)N([C@H](C)c2cccnc2N)CCO3)c1C(F)(F)F` (stereo partly drawn) [Example 134, 6-((9R)-4-((R)-1-(2-aminopyridin-3-yl)ethyl)-8-chloro-10-fluoro-2-((1-methylpyrrolidin-3-yl)methoxy)-5,6-dihydro-4H-[1,4]oxazepino[5,6,7-de]quinazolin-9-yl)-4-methyl-5-(trifluoromethyl)pyridin-2-amine], the IC50 on KRas(G12V) is 0.08 nM; in the experiment with PC-9 cells, 1600 nM; at KRas it was 0.21 nM; with SW480 cells it was 590 nM.
The corresponding values for `Cc1cc(N)nc(-c2c(Cl)c3c4c(nc(OC[C@@]56CCN5CC(F)(F)C6)nc4c2F)N([C@H](C)c2cncnc2N)CCO3)c1C(F)(F)F` (atropisomer, axis not shown) [Example 82a, 5-((R)-1-((R)-9-(6-amino-4-methyl-3-(trifluoromethyl)pyridin-2-yl)-8-chloro-2-(((S)-3,3-difluoro-1-azabicyclo[3.2.0]heptan-5-yl)methoxy)-10-fluoro-5,6-dihydro-4H-[1,4]oxazepino[5,6,7-de]quinazolin-4-yl)ethyl)pyrimidin-4-amine] are 0.11 nM, 6800 nM, 0.164 nM and 26 nM.
Taken in the same sequence, the figures for `Cc1cc(N)nc(-c2c(Cl)c3c4c(nc(OC[C@@]56CCCN5C[C@]5(CC5(F)F)C6)nc4c2F)N([C@H](C)c2cccnc2N)CCO3)c1C(F)(F)F` (atropisomer, axis not shown) [Example 111a, 6-((R)-4-((R)-1-(2-aminopyridin-3-yl)ethyl)-8-chloro-2-(((1R,7a′S)-2,2-difluorodihydro-1′H,3′H-spiro[cyclopropane-1,2′-pyrrolizin]-7a′(5′H)-yl)methoxy)-10-fluoro-5,6-dihydro-4H-[1,4]oxazepino[5,6,7-de]quinazolin-9-yl)-4-methyl-5-(trifluoromethyl)pyridin-2-amine] were 0.36 nM, 7400 nM, 0.85 nM and 1.8 nM.
Taken in the same sequence, the figures for `C[C@H](c1cccnc1N)N1CCOc2c(Cl)c(-c3nc(N)ccc3C(F)(F)F)c(F)c3nc(OC[C@@]45CCCN4C[C@H](F)C5)nc1c23` (atropisomer, axis not shown; (aS)) [Example 108a, 6-((R)-4-((R)-1-(2-aminopyridin-3-yl)ethyl)-8-chloro-10-fluoro-2-(((2R,7aS)-2-fluorotetrahydro-1H-pyrrolizin-7a(5H)-yl)methoxy)-5,6-dihydro-4H-[1,4]oxazepino[5,6,7-de]quinazolin-9-yl)-5-(trifluoromethyl)pyridin-2-amine] were 0.06 nM, 1400 nM, 0.2 nM and 2 nM.
`Cc1cc(N)nc(-c2c(Cl)c3c4c(nc(OC[C@@H]5CCC(=O)N5)nc4c2F)N([C@H](C)c2cccnc2N)CCO3)c1C(F)(F)F` (atropisomer, axis not shown) [Example 121, (S)-5-((((R)-9-(6-amino-4-methyl-3-(trifluoromethyl)pyridin-2-yl)-4-((R)-1-(2-aminopyridin-3-yl)ethyl)-8-chloro-10-fluoro-5,6-dihydro-4H-[1,4]oxazepino[5,6,7-de]quinazolin-2-yl)oxy)methyl)pyrrolidin-2-one]: the IC50 was 0.07 nM on KRas(G12V), 4900 nM with PC-9 cells, 0.437 nM at KRas and 1100 nM with SW480 cells.
In the case of `Cc1cc(N)nc(-c2c(Cl)c3c4c(nc(OC[C@H]5C[C@@H]6C[N@@]5CCO6)nc4c2F)N([C@H](C)c2cccnc2N)CCO3)c1C(F)(F)F` (atropisomer, axis not shown) [Example 92b, 6-((R)-2-(((1R,5R,7R)-4-oxa-1-azabicyclo[3.2.1]octan-7-yl)methoxy)-4-((R)-1-(2-aminopyridin-3-yl)ethyl)-8-chloro-10-fluoro-5,6-dihydro-4H-[1,4]oxazepino[5,6,7-de]quinazolin-9-yl)-4-methyl-5-(trifluoromethyl)pyridin-2-amine], the IC50 against KRas(G12V) is 0.31 nM; in the experiment with PC-9 cells, 6000 nM; at KRas it was 1.89 nM; with SW480 cells, 700 nM.
Turning to `CC(=O)N1CCN2[C@H](COc3nc4c5c(c(Cl)c(-c6nc(N)cc(C)c6C(F)(F)F)c(F)c5n3)OCCN4[C@H](C)c3cccnc3N)CC[C@H]2C1` (atropisomer, axis not shown; (aS)) [Example 123a, 1-((6S,8aS)-6-((((R)-9-(6-amino-4-methyl-3-(trifluoromethyl)pyridin-2-yl)-4-((R)-1-(2-aminopyridin-3-yl)ethyl)-8-chloro-10-fluoro-5,6-dihydro-4H-[1,4]oxazepino[5,6,7-de]quinazolin-2-yl)oxy)methyl)hexahydropyrrolo[1,2-a]pyrazin-2(1H)-yl)ethan-1-one], the IC50 on KRas(G12V) was determined as 0.13 nM; in the experiment on PC-9 cells, 6500 nM; on KRas, 0.15 nM; in the experiment on SW480 cells, 30 nM.
The corresponding values for `Cc1cc(N)nc(-c2c(Cl)c3c4c(nc(OCC5(C)CCOCC5)nc4c2F)N([C@H](C)c2cccnc2N)CCO3)c1C(F)(F)F` (atropisomer, axis not shown) [Example 144, 6-((R)-4-((R)-1-(2-aminopyridin-3-yl)ethyl)-8-chloro-10-fluoro-2-((4-methyltetrahydro-2H-pyran-4-yl)methoxy)-5,6-dihydro-4H-[1,4]oxazepino[5,6,7-de]quinazolin-9-yl)-4-methyl-5-(trifluoromethyl)pyridin-2-amine] are 1.4 nM, 6000 nM, 4.4 nM and 520 nM.
On to `Cc1cc(N)nc(-c2c(Cl)c3c4c(nc(OCC5(C#N)CC5)nc4c2F)N([C@H](C)c2cccnc2N)CCO3)c1C(F)(F)F` (atropisomer, axis not shown) [Example 153, 1-((((R)-9-(6-amino-4-methyl-3-(trifluoromethyl)pyridin-2-yl)-4-((R)-1-(2-aminopyridin-3-yl)ethyl)-8-chloro-10-fluoro-5,6-dihydro-4H-[1,4]oxazepino[5,6,7-de]quinazolin-2-yl)oxy)methyl)cyclopropane-1-carbonitrile], for which the IC50 against KRas(G12V) came out at 0.78 nM; with PC-9 cells it was 14000 nM; at KRas, 3.3 nM; in the experiment on SW480 cells it was 190 nM.
Taken in the same sequence, the figures for `Cc1cc(N)nc(-c2c(Cl)c3c4c(nc(OC[C@@H]5CCN5CC(F)F)nc4c2F)N([C@H](C)c2cncnc2N)CCO3)c1C(F)(F)F` (atropisomer, axis not shown) [Example 84a, 5-((R)-1-((R)-9-(6-amino-4-methyl-3-(trifluoromethyl)pyridin-2-yl)-8-chloro-2-(((S)-1-(2,2-difluoroethyl)azetidin-2-yl)methoxy)-10-fluoro-5,6-dihydro-4H-[1,4]oxazepino[5,6,7-de]quinazolin-4-yl)ethyl)pyrimidin-4-amine] were 0.14 nM, 12000 nM, 0.389 nM and 73 nM.

By IC50 is commonly meant the midpoint of a concentration-inhibition curve.

Source of the values: patent publication US20240383915A1, “OXAZEPINE COMPOUNDS AND USES THEREOF IN THE TREATMENT OF CANCER” (Genentech, Inc., priority 2021, published 2024).
